Laboratory results from patent publication US5478864A, “Method for disinfection using a 1,n-bis(N^5 -trifluoromethyl-phenyl-N^1 -biguanido)-alkane” (Mitsubishi Materials Corp., priority 1991, dated 1995).
Converted amounts (≈) assume the structure as drawn. Read-outs that look alike come from different tables or passages of the source.

Experiments:
[1] = test system: Achromobacter xylosoxidans RIMD 0101001; assay: minimum growth inhibition concentration, agar dilution; assay type: cell-based; conditions: RIMD0101001, Mueller-Hinton agar, digluconate
Experimental: (§1) Germicidal activity of the compound prepared in Example 1 (Compound I) was evaluated by the minimum growth inhibition concentration method (based on the standard method stipulated by Japan Society of Chemotherapy) and the phenol coefficient method.
(§2) A portion of the digluconate salt of the compound of Example 1 was dissolved in water and the solution was heated to dryness on a water bath. The dried salt was dissolved in acetic acid (potentiometric titration grade) and the concentration thereof was determined by potentiometric titration using a perchloric acid solution. The gluconate acid salt solution, whose concentration was thus determined, was diluted to predetermined concentrations with sterilized water. Each 1 ml of the solution of each concentration was placed in a Petri dish, 9 ml of Mueller-Hinton agar (supplied by Difco) was added thereto and well mixed. Thus sensitivity test media were prepared. The concentrations of the compound were 200 μg/ml and 2^n times wherein (n=-8 to 2). Separately, microorganism strains indicated in Table 1 were subcultured in propagation media (using Mueller-Hinton broth supplied by Difco) at 37° C. for 24 hours. The microorganism concentration was adjusted to 10^6 /ml. The thus obtained cultures were respectively inoculated on a series of sensitivity measuring culture media using an inoculation rod. […] The results are shown in Table 1 together with the result on chlorhexidine as a control.
(§3) Disinfecting effect of the above-prepared compounds was tested by measurement of minimum growth inhibition concentration and by the test for immediate effect in the same manner as in Example 3.

[2] = test system: Alcaligenes faecalis IPO 13111; assay: as above; assay type: cell-based; conditions: IPO13111, Mueller-Hinton agar, digluconate
Experimental: as §1, §2, §3

[3] = test system: Escherichia coli IID 861; assay: as above; assay type: cell-based
Experimental: as §1, §2, §3

[4] = test system: Escherichia coli NIHJ JC-2; assay: as above; assay type: cell-based
Experimental: as §1, §2, §3

[5] = test system: Flavobacterium meningosepticum RIMD 0614002; assay: as above; assay type: cell-based; conditions: Elizabethkingia meningoseptica, RIMD0614002; Mueller-Hinton agar; digluconate
Experimental: as §1, §2, §3

[6] = test system: Klebsiella pneumoniae IID 865; assay: as above; assay type: cell-based
Experimental: as §1, §2, §3

[7] = test system: Proteus vulgaris IID 874; assay: as above; assay type: cell-based; conditions: IID874, Mueller-Hinton agar, digluconate
Experimental: as §1, §2, §3

[8] = test system: Pseudomonas aerugimosa (clinically collected); assay: as above; assay type: cell-based; conditions: Mueller-Hinton agar, digluconate
Experimental: as §1, §2, §3

[9] = test system: Pseudomonas cepacia (collected Chiba Univ.); assay: as above; assay type: cell-based; conditions: Burkholderia cepacia, Mueller-Hinton agar, digluconate
Experimental: as §1, §2, §3

[10] = test system: Staphylococcus epidermis IID 866; assay: as above; assay type: cell-based
Experimental: as §1, §2, §3

[11] = test system: Escherichia coli IID 951; assay: as above; assay type: cell-based
Experimental: as §1, §2
(§4) Compounds of formula I, wherein the trifluoromethyl group is located at the p-position and n is 2, 3, 5, 8 and 11, were prepared starting from ethylene diamine dichloride, 1,3-propane diamine dichloride, 1,5-pentane diamine dichloride, 1,8-octane diamine dichloride or 1,11-undecane diamine dichloride, sodium dicyanamide and 4-trifluoromethyl aniline hydrochloride in accordance with the procedures as described above and minimum growth inhibition concentration (MIC) was determined in the same manner as above.
as §3
(§5) Compounds of formula I, wherein the trifluoromethyl group is located at the m-position and n is 2, 3, 5 and 8, 11 were prepared starting from ethylene diamine dihydrochloride, 1,3-propane diamine dihydrochloride, 1,5-pentane diamine dihydrochloride, 1,8-octane diamine dihydrochloride or 1,11-undecane diamine dihydrochloride, sodium dicyanamide and 3-trifluoromethylaniline hydrochloride in accordance with the procedures of Example 4 and germicidal activity thereof were determined in the same manner.

[12] = test system: Pseudomonas aeruginosa IID 1042; assay: as above; assay type: cell-based; conditions: Pseudomonas aeruginosa, IID1042, Mueller-Hinton agar, read-out: MIC
Experimental: as §1, §2, §4, §3, §5

[13] = test system: Serratia marcescens IID 602; assay: as above; assay type: cell-based
Experimental: as §1, §2, §4, §3, §5

[14] = test system: Staphylococcus aureus FDA 209-P; assay: as above; assay type: cell-based; conditions: FDA209, Mueller-Hinton agar
Experimental: as §1, §2, §4, §3, §5

[15] = test system: Staphylococcus aureus (clin'ly col'ted MRSA); assay: minimum growth inhibition concentration, agar dilution (first MRSA line); assay type: cell-based
Experimental: as §1, §2, §3

[16] = test system: Staphylococcus aureus (clin'ly col'ted MRSA); assay: minimum growth inhibition concentration, agar dilution (second MRSA line); assay type: cell-based; conditions: Mueller-Hinton agar, digluconate, clinically collected MRSA
Experimental: as §1, §2, §3

[17] = test system: Escherichia coli IID 861; assay: test for immediate effect (phenol coefficient method); assay type: cell-based; conditions: of three runs, conc. 0.001%, 20° C.
Experimental: (§6) Immediate effect of this compound was evaluated in accordance with the phenol coefficient method described in "Directions for Hygienic Tests" compiled by the Ministry of Health and Welfare of Japan. The method is as follows. (1) Culture medium Each 10 ml of the bouillon described below was taken into test tubes and they were sterilized with high pressure steam at 120° C. for 20 minutes. (2) Test method Diluted solutions of a series of concentrations of the sample compound were prepared for each of microorganisms listed in Table 2. Each 10 ml of the solutions was put into an appraisal test tube and the test tubes were placed in a thermostat bath kept at 20° C. Each microorganism was subcultured in the above described bouillon medium for testing disinfectants for three generations (37° C. for 48 hours). Each 1 ml of each culture was placed in each of the above-described series of appraisal test tubes and well mixed. After 2.5, 5, 10 and 15 minutes, 0.1 ml of the content of each appraisal test tube was taken and inoculated onto each portion of the bouillon medium for testing disinfectants. […] Each test was carried out three times. Immediate effect of disinfectants was compared by number of test runs in which microorganism growth was observed. […]

[18] = test system: Pseudomonas aeruginosa IID 1042; assay: as above; assay type: cell-based; conditions: of three runs, conc. 0.03%, 20° C.
Experimental: as §6

[19] = test system: Staphylococcus aureus FDA 209-P; assay: as above; assay type: cell-based; conditions: of three runs, conc. 0.0005%, 20° C.
Experimental: as §6

[20] = test system: some Gram-negative bacteria, especially Pyocyaneus bacilli; conditions: cited from earlier work
[21] = administered to mucous membranes in a conventionally employed concentration; cited from earlier work
[22] = gluconate salt; cited from earlier work
[23] = test system: general bacteria; conditions: cited from earlier work
[24] = test system: other microorganisms; assay: minimum growth inhibition concentration, other microorganisms of Table 1; assay type: cell-based; conditions: against other microorganisms
Experimental: as §1
A portion of the digluconate salt of the compound of Example 1 was dissolved in water and the solution was heated to dryness on a water bath. The dried salt was dissolved in acetic acid (potentiometric titration grade) and the concentration thereof was determined by potentiometric titration using a perchloric acid solution. The gluconate acid salt solution, whose concentration was thus determined, was diluted to predetermined concentrations with sterilized water. Each 1 ml of the solution of each concentration was placed in a Petri dish, 9 ml of Mueller-Hinton agar (supplied by Difco) was added thereto and well mixed. Thus sensitivity test media were prepared. The concentrations of the compound were 200 μg/ml and 2^n times wherein (n=-8 to 2). Separately, microorganism strains indicated in Table 1 were subcultured in propagation media (using Mueller-Hinton broth supplied by Difco) at 37° C. for 24 hours. The microorganism concentration was adjusted to 10^6 /ml. The thus obtained cultures were respectively inoculated on a series of sensitivity measuring culture media using an inoculation rod. […]

Structure (SMILES)	MIC [1]	MIC [2]	MIC [5]	MIC [7]	MIC [8]	MIC [9]	MIC [12]	MIC [14]	MIC [16]	number of test runs in which microorganism growth was observed ([17]; contact time 2.5 min)	number of test runs in which microorganism growth was observed ([17]; contact time 5.0 min)	number of test runs in which microorganism growth was observed ([17]; contact time 10.0 min)	number of test runs in which microorganism growth was observed ([17]; contact time 15.0 min)	number of test runs in which microorganism growth was observed ([18]; contact time 2.5 min)	number of test runs in which microorganism growth was observed ([18]; contact time 5.0 min)	number of test runs in which microorganism growth was observed ([18]; contact time 10.0 min)	number of test runs in which microorganism growth was observed ([18]; contact time 15.0 min)	number of test runs in which microorganism growth was observed ([19]; contact time 2.5 min)	number of test runs in which microorganism growth was observed ([19]; contact time 5.0 min)	number of test runs in which microorganism growth was observed ([19]; contact time 10.0 min)	further results
[H]/N=C(\N/C(=N/[H])NCCCCCCNC(=N)NC(=N)Nc1ccc(Cl)cc1)Nc1ccc(Cl)cc1 [CHXD, chlorhexidine, reference compound]	25 µg/mL (≈ 49.5 µM)	50 µg/mL (≈ 98.9 µM)	200 µg/mL (≈ 396 µM)	200 µg/mL (≈ 396 µM)	100 µg/mL (≈ 198 µM)	100 µg/mL (≈ 198 µM)	100 µg/mL (≈ 198 µM)	0.78 µg/mL (≈ 1.54 µM)	3.13 µg/mL (≈ 6.19 µM)	3	3	3	3	2	1	0	0	3	1	0	MIC ([3]; IID861): 1.56 µg/mL (≈ 3.09 µM); MIC ([4]; NIHJJC2): 1.56 µg/mL (≈ 3.09 µM); MIC ([6]; IID865): 6.25 µg/mL (≈ 12.4 µM); MIC ([10]; IID866): 1.56 µg/mL (≈ 3.09 µM); MIC ([11]; IID951): 1.56 µg/mL (≈ 3.09 µM); MIC ([13]; IID602): 6.25 µg/mL (≈ 12.4 µM); MIC ([15]; MRSA): 6.25 µg/mL (≈ 12.4 µM); number of test runs in which microorganism growth was observed ([19]; contact time 15.0 min): 0; effect against some Gram-negative bacteria, especially Pyocyaneus bacilli [20]: less effective; shock symptoms [21]: sometimes causes shock symptoms; solubility in water [22]: high solubility in water; disinfecting effect [23]: exhibits disinfecting effect on a wide range of general bacteria
N=C(NCCCCCCNC(=N)NC(=N)Nc1ccc(C(F)(F)F)cc1)NC(=N)Nc1ccc(C(F)(F)F)cc1 [Ex. 1, 1,6-bis(N^5-p-trifluoromethylphenyl-N^1-biguanido)-hexane]	50 µg/mL (≈ 87.3 µM)	6.25 µg/mL (≈ 10.9 µM)	200 µg/mL (≈ 349 µM)	25 µg/mL (≈ 43.7 µM)	12.5 µg/mL (≈ 21.8 µM)	50 µg/mL (≈ 87.3 µM)	12.5 µg/mL (≈ 21.8 µM)	1.56 µg/mL (≈ 2.72 µM)	1.56 µg/mL (≈ 2.72 µM)	3	3	2	1	0	0	0	0	0	0	0	MIC ([3]; IID861, Mueller-Hinton agar, digluconate, IID 861, read-out: MIC): 3.13 µg/mL (≈ 5.47 µM); MIC ([4]; NIHJJC2, Mueller-Hinton agar, digluconate, NIHJ JC-2, read-out: MIC): 3.13 µg/mL (≈ 5.47 µM); MIC ([6]; IID865, Mueller-Hinton agar, digluconate, read-out: MIC): 3.13 µg/mL (≈ 5.47 µM); MIC ([10]; IID866, Mueller-Hinton agar, digluconate, IID 866, read-out: MIC): 1.56 µg/mL (≈ 2.72 µM); MIC ([11]; IID951, Mueller-Hinton agar, IID 951, read-out: MIC): 3.13 µg/mL (≈ 5.47 µM); MIC ([13]; IID602, Mueller-Hinton agar, IID 602, read-out: MIC): 6.25 µg/mL (≈ 10.9 µM); MIC ([15]; Mueller-Hinton agar, digluconate, clinically collected MRSA, first line, read-out: MIC): 6.25 µg/mL (≈ 10.9 µM); number of test runs in which microorganism growth was observed ([19]; contact time 15.0 min): 0; germicidal effect compared with chlorhexidine [24]: effective at the same level as chlorhexidine
